Reference: patent US7592336B2, “Hepatitis C virus inhibitors” (Bristol-Myers Squibb Company, priority 2005, dated 2009)

Key:
[1] = biological target: T1, HCV NS3/4A protease complex, H77 strain (Hepatitis C virus genotype 1a, UniProt P27958, C1454S/C1711G); assay: FRET peptide assay to monitor HCV NS3/4A proteolytic activity (H77 strain); assay type: biochemical, HCV genotype 1a; conditions: read-out: IC50 against NS3/4A H77 strain
T1 construct: DNA encoding the recombinant HCV NS3/4A protease complex (amino acids 1027 to 1711) for these strains; inferred from pET21b vector and Ni-NTA purification; made in house; host or cells: Escherichia coli BL21 (DE3), pET21b
T1 sequence (P27958 1027-1711 C1454S/C1711G, one chain of several): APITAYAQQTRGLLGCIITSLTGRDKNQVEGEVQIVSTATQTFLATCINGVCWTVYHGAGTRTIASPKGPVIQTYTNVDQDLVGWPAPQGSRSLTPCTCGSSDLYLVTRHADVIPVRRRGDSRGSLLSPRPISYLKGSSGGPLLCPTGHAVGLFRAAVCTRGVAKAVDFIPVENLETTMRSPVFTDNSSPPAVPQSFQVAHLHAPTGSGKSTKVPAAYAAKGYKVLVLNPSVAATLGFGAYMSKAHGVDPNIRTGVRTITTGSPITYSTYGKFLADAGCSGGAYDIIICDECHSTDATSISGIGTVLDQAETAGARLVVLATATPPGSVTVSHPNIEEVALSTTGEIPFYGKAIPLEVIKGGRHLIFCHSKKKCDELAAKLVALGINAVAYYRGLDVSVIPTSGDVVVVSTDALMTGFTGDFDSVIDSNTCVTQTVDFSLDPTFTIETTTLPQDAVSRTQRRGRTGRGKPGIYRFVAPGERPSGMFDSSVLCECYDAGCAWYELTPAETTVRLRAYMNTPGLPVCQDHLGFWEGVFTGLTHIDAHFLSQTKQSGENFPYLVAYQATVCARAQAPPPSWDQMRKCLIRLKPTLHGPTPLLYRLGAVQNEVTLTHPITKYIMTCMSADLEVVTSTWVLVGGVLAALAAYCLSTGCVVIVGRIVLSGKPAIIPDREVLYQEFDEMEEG
Source text: HCV NS3 protease complexes, derived from the BMS strain, H77 strain or J4L6S strain, were generated, as described below. These purified recombinant proteins were generated for use in a homogeneous assay (see below) to provide an indication of how effective compounds of the present disclosure would be in inhibiting HCV NS3 proteolytic activity.
The H77 and J4L6S strains were used for production of recombinant NS3/4A protease complexes. DNA encoding the recombinant HCV NS3/4A protease complex (amino acids 1027 to 1711) for these strains were manipulated as described by P. Gallinari et al. (see Gallinari P, Paolini C, Brennan D, Nardi C, Steinkuhler C, De Francesco R. Biochemistry. 38(17):5620-32, (1999)). Briefly, a three-lysine solubilizing tail was added at the 3′-end of the NS4A coding region. The cysteine in the P1 position of the NS4A-NS4B cleavage site (amino acid 1711) was changed to a glycine to avoid the proteolytic cleavage of the lysine tag. Furthermore, a cysteine to serine mutation was introduced by PCR at amino acid position 1454 to prevent the autolytic cleavage in the NS3 helicase domain. […]

[2] = system: HCV replicon (Renilla luciferase) in HUH-7 cells; assay: HCV replicon luciferase reporter assay; assay type: cell-based, HCV strain 1b; conditions: Huh-7, 96 h, 4 days
Source text: As a secondary assay, EC50 determinations from the replicon FRET assay were confirmed in a replicon luciferase reporter assay. Utilization of a replicon luciferase reporter assay was first described by Krieger et al (Krieger N, Lohmann V, and Bartenschlager R, J. Virol. 75(10):4614-4624 (2001)). The replicon construct described for our FRET assay was modified by inserting cDNA encoding a humanized form of the Renilla luciferase gene and a linker sequence fused directly to the 3′-end of the luciferase gene. This insert was introduced into the replicon construct using an Asc1 restriction site located in core, directly upstream of the neomycin marker gene. The adaptive mutation at position 1179 (serine to isoleucine) was also introduced (Blight K J, Kolykhalov, A A, Rice, C M, Science 290(5498):1972-1974). A stable cell line constitutively expressing this HCV replicon construct was generated as described above. The luciferase reporter assay was set up as described for the HCV replicon FRET assay with the following modifications. Following 4 days in a 37° C./5% CO2 incubator, cells were analyzed for Renilla Luciferase activity using the Promega Dual-Glo Luciferase Assay System. […] Plates were read on a Packard TopCount NXT using a luminescence program.
The percentage inhibition was calculated using the formula below: […]
The values were graphed and analyzed using XLfit to obtain the EC50 value.

`C=C[C@@H]1C[C@]1(NC(=O)[C@@H]1C[C@@](O)(c2ccc(-c3ccccc3)cc2)CN1C(=O)[C@@H](NC(=O)OC(C)(C)C)C(C)(C)C)C(=O)NS(=O)(=O)C1CC1` [Compound 3] showed an IC50 [1] of 1.6 nM and an EC50 [2] of 14 nM.
